Results as given in patent publication US20100003208A1, “Skin Care Products, As Well As Foods and Beverages Containing 6-O-PUFA Ascorbic Esters” (Suntory Holdings Limited, priority 2004, published 2010).

Assays:
aldose reductase = aldose reductase (Homo sapiens, UniProt P15121); details: cited from earlier work
[1] = system: streptozotocin-induced diabetic model; details: in vivo; cited from earlier work
human skin strips = assay: Permeability of ascorbic acid to the tissue of human skin strips (modified Bronov diffusion cell); format: in vitro ADME; details: 100 mM (3.38% w/w; PBS(−)) on keratinized layer, re-dosed at 4 and 17 h, 24 hours; compared with unmodified vitamin C; FIG. 3
Protocol: A human skin section extracted from the right abdominal part of a volunteer with an informed consent was vertically split into small strips, which were set in a modified Bronov diffusion cell chamber. With the underside of the skin immersed in DMEM (2 mL) to supply nutrients, the keratinized layer was aerated with 5% CO2 to maintain the pH of the medium at 7.25. […] The total quantity of vitamin C (the sum of reduced and oxidized forms of vitamin C) and the quantity of reduced form of vitamin C in the epidermis and the dermis were measured; the total quantity of vitamin C was measured in the presence of 16 mM dithiothreitol as a reducing agent, whereas the quantity of reduced form of vitamin C was measured without adding any such reducing agent. The measured values were used to calculate the proportion of total vitamin C as occupied by reduced form of vitamin C. Similarly, 6-O-arachidonoyl ascorbate and 6-O-docosahexaenoyl ascorbate, as well as ascorbic acid (comparison) were evaluated and the results are also shown in FIG. 3.

[2] = system: human skin keratocytes HaCaT; assay: Protective effect on apoptosis of HaCaT keratocytes under UVA irradiation (WST-1 viability); format: cell-based; details: 200 μM added 2 hours before 32-48 mJ/cm^2 UVA; WST-1 24 hours after irradiation; FIG. 2
Protocol: Human skin keratocytes HaCaT (the cell line granted by courtesy of Dr. Fusenig at University of Heidelberg) were inoculated on a 24-well plate at a density of 10,000 cells/well in a 10% fetal bovine serum (FBS) containing Dulbecco modified Eagle medium (DMEM); 18 hours later, the medium was irradiated with 32-48 mJ/cm^2 of UVA. Two hours before the irradiation, 100-200 μM of 6-O-dihomo-γ-linolenoyl ascorbate had been added to the medium but it was removed just before the irradiation and the medium was rinsed. UVA irradiation was performed in PBS but in the absence of the drug; after the irradiation, culture was continued in the 10% FBS containing DMEM and 24 hours after the irradiation, the cell viability was evaluated by a mitochondrial dehydrogenase activity assay method using 2-(4-iodophenyl)-3-(4-nitrophenyl)-5-(2,4-disulfophenyl)-2H-tetrazolium monosodium salt (WST-1).

| amount of vitamin C in the dermis (human skin strips) | SMILES | aldose reductase inhibitory action (aldose reductase) | efficacy in streptozotocin-induced diabetic model [1] | viability of human skin keratocytes [2] |
| --- | --- | --- | --- | --- |
| – | CCCCC/C=C\C/C=C\C/C=C\CCCCC(=O)OC[C@H](O)[C@H]1OC(=O)C(O)=C1O [6-O-γ-linolenoyl ascorbate] | aldose reductase inhibitory action | effective | – |
| increased markedly | CCCCC/C=C\C/C=C\C/C=C\C/C=C\CCCC(=O)OC[C@H](O)[C@H]1OC(=O)C(O)=C1O [6-O-arachidonoyl ascorbate] | – | – | – |
| increased markedly | CCCCC/C=C\C/C=C\C/C=C\CCCCCCC(=O)OC[C@H](O)[C@H]1OC(=O)C(O)=C1O [6-O-dihomo-γ-linolenoyl ascorbate] | – | – | improved the viability |
